The source of these data is patent US8598145B2, “Mitochondrially delivered anti-cancer compounds” (priority 2008, dated 2013).

Each structure is given as a SMILES string.

This assay concerns Ras-transformed B9 cells with a defective Complex II. Briefly: Apoptosis in Ras-transformed B1 and B9 cells (FIG. 4C). The assay is classed as cell-based, Chinese hamster. As to the method:
4C—After 24 h of treatment with Complex II targeting drugs TTFA or MitoVES, Ras transformed B1 and B9 cells were assessed for apoptosis using the Annexin V binding method.
The following cell lines used in this study were obtained from ATCC, unless specified otherwise: Human T lymphoma cells Jurkat, human mesothelioma cells Meso-I, MM-BI, Ist-Mes, Ist-Mes-2 (Pass, H. I. et al. Characteristics of nine newly derived mesothelioma cell lines. Ann. Thorac. Surg. 59, 835-844 (1995)), human breast cancer cells MCF-7 (erbB2-low) and MDA-MB-453 (erbB2-high), human colorectal cells HCT-116, human hepatocarcinoma cells Huh-7, mouse mesothelioma cells AE17 (Jackaman, C. et al. IL-2 intratumoral immunotherapy enhances CD8+ T cells that mediate destruction of tumor cells and tumor-associated vasculature: a novel mechanism for IL-2. J. Immunol. 171, […] (2003), human non-malignant mesothelial cells Met-5A, […] (Claycomb, W. C. et al. HL-1 cells: a cardiac muscle cell line that contracts and retains phenotypic characteristics of the adult cardiomyocyte. Proc. Natl. Acad. Sci. USA 95, 2979-2984 […]) and H9c2, and the human endothelial-like cells EAhy926 (Edgell, C. J., McDonald, C. C. & Graham, J. B. Permanent cell line expressing human factor VIII-related antigen established by hybridization. Proc. Natl. Acad. Sci. USA 80, 3734-3737 (1983)). Jurkat cells were grown in the RPMI medium while DMEM was used for other malignant cell lines and for Met-5A cells, supplemented with 10% FCS and antibiotics. HL-1 cells, maintained in fibronectin/gelatine-coated dishes, were grown in the Claycomb medium supplemented with noradrenalin (Claycomb, W. C. et al. HL-1 cells: a cardiac muscle cell line that contracts and retains phenotypic characteristics of the adult cardiomyocyte. Proc. Natl. Acad. Sci. USA 95, 2979-2984 […]), EAhy926 cells were grown in complete DMEM supplemented with HAT (Edgell, C. J., McDonald, C. C. & Graham, J. B. Permanent cell line expressing human factor VIII-related antigen established by hybridization. Proc. Natl. Acad. Sci. USA 80, 3734-3737 (1983)). Cells deficient in mtDNA (ρ^0 phenotype) were prepared as detailed in Weber, T. et al., (Mitochondria play a central role in apoptosis induced by α-tocopheryl succinate, an agent with anticancer activity. Comparison with receptor-mediated pro-apoptotic signaling. Biochemistry 42, 4277-4291 (2003)). Acquisition of the ρ^0 phenotype was confirmed by lack of expression by the cells of the mtDNA-encoded cytochrome c oxidase subunit II (COXII not shown). […]

For `Cc1c(C)c2c(c(C)c1OC(=O)CCC(=O)[O-])CCC(C)(CCCCCCCCCCC[P+](c1ccccc1)(c1ccccc1)c1ccccc1)O2` (centres unmarked) [MitoVE11S], the “sensitivity to apoptosis of Ras-transformed B9 cells compared to Ras-transformed B1 cells” value (24 h treatment, Annexin V binding) is given as “much less sensitive”. For the same compound, under “B9 cells transfected to express human SDHC”, the “sensitivity after reconstitution of Complex II function (human SDHC) in Ras-transformed B9 cells” value is given as “restored the sensitivity”.
